This is an account of results in patent US10131675B2 (Genentech, Inc., priority 2015, dated 2018).

Sequence of DLK (Q12852 1-520): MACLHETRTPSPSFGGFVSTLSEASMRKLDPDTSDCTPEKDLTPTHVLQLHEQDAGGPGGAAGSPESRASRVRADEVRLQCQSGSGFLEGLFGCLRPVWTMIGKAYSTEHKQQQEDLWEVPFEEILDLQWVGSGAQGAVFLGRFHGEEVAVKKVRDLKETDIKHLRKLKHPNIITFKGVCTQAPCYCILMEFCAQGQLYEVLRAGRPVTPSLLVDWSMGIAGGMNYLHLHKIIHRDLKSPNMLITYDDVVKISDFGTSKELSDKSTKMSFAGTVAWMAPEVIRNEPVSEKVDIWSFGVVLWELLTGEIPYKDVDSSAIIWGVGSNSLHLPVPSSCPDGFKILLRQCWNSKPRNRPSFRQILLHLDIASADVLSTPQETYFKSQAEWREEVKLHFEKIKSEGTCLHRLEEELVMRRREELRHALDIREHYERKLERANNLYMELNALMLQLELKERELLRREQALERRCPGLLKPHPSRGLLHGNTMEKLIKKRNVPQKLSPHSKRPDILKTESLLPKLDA

The assay has as its target DLK (Homo sapiens (Human), UniProt Q12852). Briefly: DLK TR-FRET Inhibition Assay. The format is biochemical. The note with it: N-terminally GST-tagged DLK (catalytic domain amino acid 1-520), MKK4 K131M substrate, 30 μM ATP; read-out: DLK HTRF Ki. The protocol:
DLK kinase reactions (20 μL) containing 5 nM N-terminally GST-tagged DLK (catalytic domain amino acid 1-520) (Carna Bioscience), 40 nM N-terminally HIS tagged MKK4 K131M substrate, and 30 μM ATP in kinase reaction buffer (50 mM HEPES, pH 7.5, 0.01% Triton X-100, 0.01% Bovine γ-Globulins, 2 mM DTT, 10 mM MgCl2 and 1 mM EGTA), and testing compound 1:3 serial diluted starting at 20 uM were incubated at ambient temperature for 60 minutes in 384 well OptiPlate (Perkin Elmer). To quench kinase reactions and detect phosphorylated MKK4, 15 μL of TR-FRET antibody mixture containing 2 nM anti-phosphorylated MKK4 labeled with Europium cryptate (Cisbio) and 23 nM anti-HIS labeled with D2 (Cisbio) in detection buffer (25 mM Tris pH 7.5, 100 mM NaCl, 100 mM EDTA, 0.01% Tween-20, and 200 mM KF) was added to the reaction mixture. The detection mixture was incubated for 3 hours at ambient temperature and the TR-FRET was detected with an EnVision multilabel plate reader (Perkin-Elmer) using the LANCE/DELFIA Dual Enh label from Perkin-Elmer (excitation filter: UV2 (TRF) 320 and emission filters: APC 665 and Europium 615).
(Time-resolved FRET reads energy transfer from a long-lived donor to a nearby acceptor.)
By Ki is commonly meant a measure of affinity in units of concentration, obtained from inhibition or displacement. Consider `C[C@H]1CCCN1c1nc(-c2cnc(N)nc2)nc2c1nc1n2CCOC1(C)C` [Example 53, 5-[8,8-Dimethyl-1-((S)-2-methyl-pyrrolidin-1-yl)-5,6-dihydro-8H-7-oxa-2,4,4b,9-tetraaza-fluoren-3-yl]-pyrimidin-2-ylamine], for which the Ki worked out at 479 nM. Turning to `CC1CCC(C)N1c1nc(-c2cnc(N)nc2)nc2c1nc1n2CCOC1(C)C` (stereo not shown) [Example 54, 5-[1-(2,5-Dimethyl-pyrrolidin-1-yl)-8,8-dimethyl-5,6-dihydro-8H-7-oxa-2,4,4b,9-tetraaza-fluoren-3-yl]-pyrimidin-2-ylamine], the Ki came out at 284 nM.

In the case of `C[C@@H]1CC[C@H](C)N1c1nc(-c2cnc(N)nc2)nc2c1nc1n2CCOC1(C)C` [Example 55, 5-(4-((2R,5S)-2,5-dimethylpyrrolidin-1-yl)-6,6-dimethyl-8,9-dihydro-6H-[1,4]oxazino[4,3-e]purin-2-yl)pyrimidin-2-amine], the Ki turned out to be 371 nM. Consider `CC1(C)OCCn2c1nc1c(N3C4CCC3CC4)nc(-c3cnc(N)nc3)nc12` [Example 56, 5-(4-(7-azabicyclo[2.2.1]heptan-7-yl)-6,6-dimethyl-8,9-dihydro-6H-[1,4]oxazino[4,3-e]purin-2-yl)pyrimidin-2-amine], for which the inhibition constant (Ki) came to 339 nM. For the compound `COc1cc(-c2nc(N3CC4CC3C4)c3nc4n(c3n2)CCOC4(C)C)cnc1N` [Example 57], the inhibition constant Ki worked out at 200 nM.

Turning to `CN(c1nc(-c2cnc(N)nc2)nc2c1nc1n2CCOC1(C)C)C1CCC1` [Example 58, 2-(2-aminopyrimidin-5-yl)-N-cyclobutyl-N,6,6-trimethyl-8,9-dihydro-6H-[1,4]oxazino[4,3-e]purin-4-amine], the Ki was determined as 87.7 nM. On to `CC1(C)OCCn2c1nc1c(NC3CC3)nc(-c3cnc(N)nc3)nc12` [Example 59, 2-(2-aminopyrimidin-5-yl)-N-cyclopropyl-6,6-dimethyl-8,9-dihydro-6H-[1,4]oxazino[4,3-e]purin-4-amine], for which the Ki amounted to 192 nM. On to `CN(c1nc(-c2cnc(N)nc2)nc2c1nc1n2CCOC1(C)C)C1CC1` [Example 60, 2-(2-aminopyrimidin-5-yl)-N-cyclopropyl-N,6,6-trimethyl-8,9-dihydro-6H-[1,4]oxazino[4,3-e]purin-4-amine], for which the inhibition constant (Ki) came out at 207 nM. Consider `CCN(c1nc(-c2cnc(N)nc2)nc2c1nc1n2CCOC1(C)C)C1CC1` [Example 61, 2-(2-aminopyrimidin-5-yl)-N-cyclopropyl-N-ethyl-6,6-dimethyl-8,9-dihydro-6H-[1,4]oxazino[4,3-e]purin-4-amine], for which the Ki amounted to 250 nM. As for `CCN(c1nc(-c2cnc(N)nc2)nc2c1nc1n2CCOC1(C)C)C1CCC1` [Example 62, 2-(2-aminopyrimidin-5-yl)-N-cyclobutyl-N-ethyl-6,6-dimethyl-8,9-dihydro-6H-[1,4]oxazino[4,3-e]purin-4-amine], the Ki is 86.7 nM.

As for `CC(C)N(c1nc(-c2cnc(N)nc2)nc2c1nc1n2CCOC1(C)C)C1CC1` [Example 63, 2-(2-aminopyrimidin-5-yl)-N-cyclopropyl-N-isopropyl-6,6-dimethyl-8,9-dihydro-6H-[1,4]oxazino[4,3-e]purin-4-amine], the Ki was determined as 558 nM. For `CC(C)N(c1nc(-c2cnc(N)nc2)nc2c1nc1n2CCOC1(C)C)C1CCC1` [Example 64, 2-(2-aminopyrimidin-5-yl)-N-cyclobutyl-N-isopropyl-6,6-dimethyl-8,9-dihydro-6H-[1,4]oxazino[4,3-e]purin-4-amine], the Ki was 267 nM. With `COc1cc(-c2nc(N3CC(F)(F)C3)c3nc4n(c3n2)CCOC4(C)C)cnc1N` [Example 65, 5-(4-(3,3-difluoroazetidin-1-yl)-6,6-dimethyl-8,9-dihydro-6H-[1,4]oxazino[4,3-e]purin-2-yl)-3-methoxypyridin-2-amine], the inhibitory constant (Ki) was 860 nM. With `Cc1c[nH]c2ncc(-c3nc(N4CC(F)(F)C4)c4nc5n(c4n3)CCOC5(C)C)cc12` [Example 66], the Ki came out at 11.9 nM. As to `CC(C)c1c[nH]c2ncc(-c3nc(N4CC(F)(F)C4)c4nc5n(c4n3)CCOC5(C)C)cc12` [Example 67], the Ki worked out at 32.7 nM.

As for `CC1(C)OCCn2c1nc1c(N3CC(F)(F)C3)nc(-c3cnc(N)nc3)nc12` [Example 68], the Ki was determined as 480 nM. Take `CCOc1cc(-c2nc(N3CC(F)(F)C3)c3nc4n(c3n2)CCOC4(C)C)cnc1N` [Example 69]: the Ki turned out to be 289 nM.

For the compound `CC1(C)OCCn2c1nc1c(N3CC(F)(F)C3)nc(-c3cnc(N)c(OCC4CC4)c3)nc12` [Example 70], the Ki was found to be 417 nM. Consider `CC(C)Oc1cc(-c2nc(N3CC(F)(F)C3)c3nc4n(c3n2)CCOC4(C)C)cnc1N` [Example 71], for which the inhibitory constant (Ki) amounted to 104 nM. With `CCC(C)Oc1cc(-c2nc(N3CC(F)(F)C3)c3nc4n(c3n2)CCOC4(C)C)cnc1N` (stereo not shown) [Example 72], the inhibitory constant (Ki) was 230 nM. `COc1cc(-c2nc(N3CCC(F)(F)C3)c3nc4n(c3n2)CCOC4(C)C)cnc1N` [Example 73, 5-(4-(3,3-difluoropyrrolidin-1-yl)-6,6-dimethyl-8,9-dihydro-6H-[1,4]oxazino[4,3-e]purin-2-yl)-3-methoxypyridin-2-amine]: the inhibition constant Ki is 297 nM. Regarding `Cc1c[nH]c2ncc(-c3nc(N4CCC(F)(F)C4)c4nc5n(c4n3)CCOC5(C)C)cc12` [Example 74], the Ki turned out to be 25.9 nM. The same measure for `CC(C)c1c[nH]c2ncc(-c3nc(N4CCC(F)(F)C4)c4nc5n(c4n3)CCOC5(C)C)cc12` [Example 75]: 112 nM; for `CC1(C)OCCn2c1nc1c(N3CCC(F)(F)C3)nc(-c3cnc(N)nc3)nc12` [Example 76]: 97.6 nM; for `CC1(C)OCCn2c1nc1c(N3CCC(F)(F)C3)nc(-c3cnc(N)c(OCC4CC4)c3)nc12` [Example 77]: 588 nM. For the compound `CCOc1cc(-c2nc(N3CCC(F)(F)C3)c3nc4n(c3n2)CCOC4(C)C)cnc1N` [Example 78], the inhibitory constant (Ki) came to 558 nM. As to `CC(C)Oc1cc(-c2nc(N3CCC(F)(F)C3)c3nc4n(c3n2)CCOC4(C)C)cnc1N` [Example 79], the Ki amounted to 269 nM. As to `CCC(C)Oc1cc(-c2nc(N3CCC(F)(F)C3)c3nc4n(c3n2)CCOC4(C)C)cnc1N` (stereo not shown) [Example 80], the Ki came to 443 nM. Take `CC1(C)OCCn2c1nc1c(N3CCC(F)(F)C3)nc(-c3cnc(N)c(Cl)c3)nc12` [Example 81]: the Ki was 272 nM. `CC1(C)OCCn2c1nc1c(N3CCC(F)(F)C3)nc(-c3cnc(N)c(F)c3)nc12` [Example 82]: the inhibition constant (Ki) is 280 nM.

Take `CC1(C)OCCn2c1nc1c(N3CCC(F)(F)C3)nc(-c3cnc4ccnn4c3)nc12` [Example 83]: the Ki worked out at 497 nM. In the case of `CC1(C)OCCn2c1nc1c(OC3CCCC3)nc(-c3cnc(N)nc3)nc12` [Example 84, 5-(4-(cyclopentyloxy)-6,6-dimethyl-8,9-dihydro-6H-[1,4]oxazino[4,3-e]purin-2-yl)pyrimidin-2-amine], the inhibition constant Ki worked out at 357 nM. On to `CC(C)Oc1nc(-c2cnc(N)nc2)nc2c1nc1n2CCOC1(C)C` [Example 85], for which the Ki is 571 nM.

Regarding `CC1(C)OCCn2c1nc1c(OCC3CC3)nc(-c3cnc(N)nc3)nc12` [Example 86], the inhibition constant (Ki) was 634 nM. Take `COc1nc(-c2cnc3[nH]cc(C(F)(F)F)c3c2)nc2c1nc1n2CCOC1(C)C` [Example 87]: the inhibition constant (Ki) stood at 14 nM. The same measure for `CC1(C)OCCn2c1nc1c(OC3CCC3)nc(-c3cnc(N)nc3)nc12` [Example 88]: 330 nM; for `CC1(C)OCCn2c1nc1c(OC3CC4CC4C3)nc(-c3cnc(N)nc3)nc12` (stereo not shown) [Example 89]: 551 nM; for `CC1(C)OCCn2c1nc1c(N3CC4CC3C4)nc(-c3cnc(N)c(C(F)(F)F)c3)nc12` [Example 90, 5-(4-(2-azabicyclo[2.1.1]hexan-2-yl)-6,6-dimethyl-8,9-dihydro-6H-[1,4]oxazino[4,3-e]purin-2-yl)-3-(trifluoromethyl)pyridin-2-amine]: 5.98 nM. As for `CC1(C)OCCn2c1nc1c(N3CC4CC3C4)nc(-c3cncc(C(F)(F)F)c3)nc12` [Example 92, 4-(2-azabicyclo[2.1.1]hexan-2-yl)-6,6-dimethyl-2-(5-(trifluoromethyl)pyridin-3-yl)-8,9-dihydro-6H-[1,4]oxazino[4,3-e]purine], the Ki was 478 nM. The same measure for `CC1(c2nc(-c3cnc(N)nc3)nc3c2nc2n3CCOC2(C)C)CC1` [Example 95, 5-(6,6-dimethyl-4-(1-methylcyclopropyl)-8,9-dihydro-6H-[1,4]oxazino[4,3-e]purin-2-yl)pyrimidin-2-amine]: 476 nM. In the case of `CC1(C(F)(F)F)OCCn2c1nc1c(N3CC4CC3C4)nc(-c3cnc(N)nc3)nc12` (stereo not shown) [Example 100, 5-(4-(2-azabicyclo[2.1.1]hexan-2-yl)-6-methyl-6-(trifluoromethyl)-8,9-dihydro-6H-[1,4]oxazino[4,3-e]purin-2-yl)pyrimidin-2-amine], the Ki was 225 nM. `CC1(C)OCCn2c1nc1c(C3(C#N)CCC3)nc(-c3cnc(N)nc3)nc12` [Example 103, 1-(2-(2-aminopyrimidin-5-yl)-6,6-dimethyl-8,9-dihydro-6H-[1,4]oxazino[4,3-e]purin-4-yl)cyclobutanecarbonitrile]: the Ki worked out at 1000 nM. With `CC1(C)OCCn2c1nc1c(C3CCC3)nc(-c3cnc(N)nc3)nc12` [Example 104, 5-(4-cyclobutyl-6,6-dimethyl-8,9-dihydro-6H-[1,4]oxazino[4,3-e]purin-2-yl)pyrimidin-2-amine] the figure was 297 nM.
